Measured values as given in US20200261516A1, “Composition for Increasing Muscle Mass” (MORINAGA MILK INDUSTRY CO., LTD., priority 2017, published 2020).

Test system: C57BL/6 mice
Assay: Mouse test: muscle wet weight (body weight ratio) and gastrocnemius histology after 4-week oral administration
Type: in vivo
Settings: once a day for 4 weeks, n=7/group
Description: C57BL/6 mice (Charles River, Japan: healthy mice) were used as test animals to evaluate the effect of 4-week continuous ingestion of Bifidobacterium breve FERM BP-11175 on muscle mass increase.
After receiving the test animals at 9 weeks old, F-2 feed (manufactured by Funabashi Pharm) and tap water were freely ingested. After one week of acclimatization, the test animals were divided into 3 groups (n=7/group): a control group (administered 10 mL/kg body weight of tap water); a Bifidobacterium administration group (administered 10 mL/kg body weight of culture supernatant of Bifidobacterium breve FERM BP-11175 prepared in (1) of test example 1); and a leucine administration group (administered 1.5 g/kg body weight of leucine), and oral administration was continued for each mouse using an oral probe once a day for 4 weeks. After the final administration, the test animals were fasted for 3 hours, followed by treatment under sevoflurane anesthesia, and plantaris and gastrocnemius was removed to measure the wet weight (body weight ratio) of each tissue. For gastrocnemius, the thin-sectioned tissue was stained with HE, and then the tissue was observed under a microscope.

Q: How did the “Gastrocnemius tissue weight (body weight ratio) [Mean value ± SE]” value turn out when CC(C)C[C@H](N)C(=O)O [Leucine, leucine] was run?
A: Its value is 5.417 ± 0.125 mg/g body weight.

Q: What about the “Plantaris tissue weight (body weight ratio) [Mean value ± SE]” value of the same compound?
A: The value was 0.706 ± 0.027 mg/g body weight.
